Where a SMILES comes first, the peptide text is derived from it.
Key:
Cdc14 = Cdc14 (Saccharomyces cerevisiae, UniProt Q00684); format: biochemical; settings: for Dephosphorylation of pTP phosphopeptide by Cdc14: 1 µM Cdc14 (Supplementary Fig. 9d)
GFP-Cdc14 [1] = target: GFP-Cdc14 (Saccharomyces cerevisiae, UniProt Q00684); assay: biochemical; format: binding
Cdc14 with Net1^1-600 = format: biochemical, Saccharomyces cerevisiae; settings: 200 nM Net1^1-600; two independent experiments (Fig. 4c)
His6-Net1^1-600 = target: T1, His6-Net1^1-600 (S. cerevisiae, UniProt P47035 1-600); assay: pull-down
T1 sequence (looked up): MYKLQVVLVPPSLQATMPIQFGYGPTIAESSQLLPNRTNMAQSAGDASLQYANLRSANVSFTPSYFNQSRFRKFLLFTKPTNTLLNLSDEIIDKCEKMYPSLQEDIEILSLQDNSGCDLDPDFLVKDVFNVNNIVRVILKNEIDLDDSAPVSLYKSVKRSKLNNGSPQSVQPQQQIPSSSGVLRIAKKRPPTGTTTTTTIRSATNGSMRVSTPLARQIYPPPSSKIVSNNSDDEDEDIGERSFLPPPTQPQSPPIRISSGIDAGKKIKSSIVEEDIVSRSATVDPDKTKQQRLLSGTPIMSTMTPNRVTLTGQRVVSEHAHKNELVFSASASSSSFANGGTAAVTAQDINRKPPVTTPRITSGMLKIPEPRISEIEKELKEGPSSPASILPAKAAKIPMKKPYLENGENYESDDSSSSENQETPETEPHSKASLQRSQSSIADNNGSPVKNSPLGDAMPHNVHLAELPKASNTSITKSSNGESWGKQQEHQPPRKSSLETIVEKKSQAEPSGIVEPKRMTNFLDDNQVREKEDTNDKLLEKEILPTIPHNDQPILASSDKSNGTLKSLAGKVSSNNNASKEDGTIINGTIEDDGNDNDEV

GFP-Cdc14 [2] = target: T2, GFP-Cdc14 (S. cerevisiae, UniProt Q00684 1-551); assay: MST
T2 sequence (looked up): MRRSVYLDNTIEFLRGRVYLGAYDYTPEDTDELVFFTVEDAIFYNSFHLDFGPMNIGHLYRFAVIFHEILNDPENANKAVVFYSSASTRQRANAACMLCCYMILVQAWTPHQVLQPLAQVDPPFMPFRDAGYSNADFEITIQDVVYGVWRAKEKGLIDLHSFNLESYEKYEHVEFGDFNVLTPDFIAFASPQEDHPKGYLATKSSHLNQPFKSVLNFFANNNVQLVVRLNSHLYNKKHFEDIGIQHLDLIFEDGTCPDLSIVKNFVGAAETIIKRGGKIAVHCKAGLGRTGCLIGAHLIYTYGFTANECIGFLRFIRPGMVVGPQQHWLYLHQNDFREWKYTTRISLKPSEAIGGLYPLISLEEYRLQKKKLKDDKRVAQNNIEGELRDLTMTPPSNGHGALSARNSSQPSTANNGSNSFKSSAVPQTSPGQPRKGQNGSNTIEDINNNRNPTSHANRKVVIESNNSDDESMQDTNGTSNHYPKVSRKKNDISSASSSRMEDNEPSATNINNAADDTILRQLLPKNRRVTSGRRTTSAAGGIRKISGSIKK

FTDVPALNYPATPPPH-TSPLGpSPLAAFNGLTSPQRSPFPKSSVK [PxL…pSPxAA peptide]
Behaviour at higher substrate concentrations (Cdc14; pSPxAA phosphopeptide, 100 nM Cdc14, above 50 μM (Fig. 6a)): apparent substrate inhibition

CC(C)C[C@H](NC(=O)[C@H](CC(C)C)NC(=O)[C@@H]1CCCN1C(=O)[C@H](C)NC(=O)[C@H](CC(N)=O)NC(=O)[C@H](CCCCN)NC(=O)[C@H](Cc1ccccc1)NC(=O)[C@H](CO)NC(=O)[C@H](CCCCN)NC(=O)[C@@H](NC(=O)[C@@H](NC(=O)[C@H](CO)NC(=O)[C@@H]1CCCN1)[C@@H](C)O)[C@@H](C)O)C(=O)N[C@@H](C)C(=O)N1CCC[C@H]1C(=O)N1CCC[C@H]1C(=O)O [Sic1 peptide] (H-PSTTKSFKNAPLLAPP-OH)
Kd (GFP-Cdc14 [1]): 32.2 µM

FTDVPALNYPATPPPHTSPLGpTPLAAFNGLTSPQRSPFP-KSSVK [PxL…pTP peptide]
Dephosphorylation of pTP phosphopeptide by Cdc14 (Cdc14): substantially enhanced

YVPAPAPTTPLNFDHP [scrambled peptide]
Effect of peptide on inhibition of Cdc14 p-NPP hydrolysis by Net1 (Cdc14 with Net1^1-600): observed to a much lesser extent

FTDVAAGNYPATPPPH-TSPLGpTPLAAFNGLTSPQRSPFPKSSVK [AxG…pTP control peptide]
Dephosphorylation of pTP phosphopeptide by Cdc14 (Cdc14): almost undetectable

B1: GST-Cdc14 (enzyme, S. cerevisiae, UniProt Q00684 1-551, looked up)
chain: T2 sequence (looked up)
binding result (His6-Net1^1-600): binds

Ac-KGKLILSSVPPLPYDE-NH2 [Kar9-derived PxL motif peptide]
Kd (GFP-Cdc14 [2]): 6 µM

FTDVPALNYPATPPPH [Cbk1-derived PxL motif peptide (16-mer)]
Kd (GFP-Cdc14 [2]): 6.1 µM

— article PMC6292506 (Nature structural & molecular biology, 2018)
